In one series the test system is HEY-T30 xenografts. As to the kind of experiment: Synergy with cyclophosphamide, Taxol resistant subcutaneous xenografts. As to conditions: day 21; compound 5 10 mg/kg/day six days a week ip; cyclophosphamide 10 mg/kg six days a week orally; or both. Format: in vivo, nude mice.
Series [1] relates to Ras palmitoylation in A2780 and A2780cis ovarian cancer cells. The series can be described thus: Ras palmitoylation (resin capture, immunoblot). Type of series: cell-based, human. The protocol:
FIGS. 18A-18B illustrate the effect of compounds 5 and 6 on K-Ras. FIG. 18A: Compound 6 suppressed of K-Ras activation. Cells with mutant K-Ras were treated with compound 6 1.5×IC50 for the respective time periods. K-Ras activity was determined by Ras pull-down (Thermo Scientific; following vendor instructions). K-Ras activation is suppressed 37% at 1 hr and 88% at 2 hrs compared to respective controls. FIG. 18B: Compound 5 suppressed the palmitoylation of Ras in A2780 and A2780cis (resistant to cisplatin) ovarian cancer cells. Palmitoylation is detected by removing S-palmitate groups from proteins, creating new free thiols (where the palmitic acid group used to be) and capturing the previously S-palmitoylated proteins on a resin, using a commercial kit (Badrilla, Leeds, UK). Ras was detected in the eluate by immunoblot.
This effect may be particularly useful in types of cancer characterized by K-Ras mutation such as, for example, pancreatic, lung and ovarian cancer. FIG. 18A illustrates the inhibition of K-Ras activation by compound 6. […] This property of compound 5 is not shared for example by compound 6 or phosphosulindac.
(Immunoblotting shows a protein as a band on a membrane.)

Series [2] can be described thus: Ocular pharmacokinetics and biodistribution after eye drops. Format: in vivo, New Zealand rabbits. More on the design: unit not given here. As to conditions: rabbit, 20% eye drops. The method, then: The pharmacokinetics and biodistribution of compounds 1, 2, and 5 in the eye of rabbits were determined. Each of these compounds was dissolved in phosphate buffered saline (PBS) and used as eye drops. The eye drops were sterilized before application to rabbits by filtration through a 0.2 μm membrane. […] The eyes were harvested and eye tissues and the lacrimal glands were dissected, homogenized and the test compounds were extracted by acetonitrile and analyzed by HPLC, as described under Compound Synthesis described herein. Compounds 1 and 2 were detected at 328 nm, and compound 5 at 260 nm. […] All three compounds can unexpectedly, readily, and rapidly reach the posterior chamber of the eye.

Another series deals with A2780 xenografts. As to the kind of experiment: Subcutaneous xenografts in nude mice, platinum sensitive. Format: in vivo. As to conditions: compound 5 15 mg/kg/day six days a week ip; cis-platinum 5.5 mg/kg one time a week ip. The protocol: (§1) To determine whether compound 5 is efficacious against chemotherapy-resistant ovarian cancer, three pairs of sensitive and resistant human ovarian cancer cell lines were grown as subcutaneous xenografts in nude mice and treated as summarized in FIG. 10. These cell lines were: A2780, sensitive to both cis-platinum and Adriamycin (doxorubicin); A2780cis, resistant to cis-platinum; A2780ADR, resistant to Adriamycin: HEY, sensitive to Taxol; HEY-T30, resistant to Taxol. The treatments administered were: vehicle control; compound 5, 15 mg/kg/day six days a week, ip; cis-platinum 5.5 mg/kg, one time a week ip; Adriamycin 3 mg/kg twice a week ip; and Taxol 20 mg/kg twice a week ip.

The test system of the next series is A2780cis xenografts. As to the kind of experiment: Subcutaneous xenografts in nude mice, cisplatin resistant. As to conditions: compound 5 15 mg/kg/day six days a week ip; cis-platinum 5.5 mg/kg one time a week ip. Type of series: in vivo. The method, then:
Compound 6 was also efficacious against chemotherapy-resistant ovarian cancer. […] The effect of compound 6 in cisplatin resistant (A2780cis) and doxorubicin (Adriamycin) resistant (A2780ADR) tumors was studied. Briefly, each of these cell lines was subcutaneously inoculated into athymic nude mice and when the tumor size reached 100-200 mm^3, compound 6 150 mg/kg/day or its vehicle were given i.p. After 11 days of treatment, for the cisplatin-resistant tumors the tumor volume of the vehicle group was 2388±127 mm^3 and for compound 6 group 1032±108 mm^3 (mean±SEM; P<0.02); while for the doxorubicin-resistant tumors these values were: vehicle group=1369±337 mm^3 and compound 6 group=396±182 mm^3 (P<0.02).
as §1

The subject of series [3] is oxygen-induced retinopathy. The series can be described thus: Mouse model of oxygen-induced retinopathy. Type of series: in vivo, C57BL/6 mice. Conditions: 10% w/v eye drops 5 times daily, P12 to P17. The protocol: C57BL/6 mice were reared in 75±2% oxygen air starting on postnatal day 7 (P7) and moved into room air on P12, when they were injected intravitreally with 1 μl of 1% compound 6 solution or vehicle. On P17, the pups were euthanized, both eyes were enucleated and fixed with 4% paraformaldehyde (PFA). Following several intermediate steps, the retina was existed and fixed further with 4% PFA overnight. After appropriate washings, the retina was incubated with 10 μg/ml of FITC-conjugated anti-lectin antibody overnight and retina flat-mounts were prepared on glass slides and evaluated by fluorescence microscopy. The areas of the avascular, neovascular and whole retina were determined using ImageJ software.
In another study, the same mouse model of oxygen-induced retinopathy described above was used. In this study, mice were treated daily with an aqueous solution of compound 2 (pH=4.6, osmolarity=282 mOsm; concentration=10% w/v) from postnatal day 12 to day 17. Compound 2 was administered as one eye drop per eye every 2 hours during the day time for a total of 5 administrations daily. At the end of the study, mice were euthanized and their retinas dissected and studied by immunofluorescence using an antibody against lectin I, isolectin B4 (Vector Laboratories) and evaluated as above.

Series [4] is described as follows: Biodistribution in human eyes removed from deceased donors. Format: in vitro ADME. Conditions: human eye, 10% (w/v) solution, then 1 h incubation. The method, then:
Compound 6 3% (formulated in polyethylene glycol 155; Tween 80% 1%; Kolliphor EL 10%, made to 100% with normal saline; pH 7.2) was injected iv as a single dose of 30 mg/kg. Its retina levels were 4.9 μM and 1 μM at 1 h and 2 h, respectively (the corresponding sclera levels were similar, 3.2 μM and 2.0 μM). When compound 6 was given ip (in corn oil) as a single dose of 100 mg/kg its retina levels became detectable at 3 h (3.2 μM) and remained at 2.8 μM at 4 h and 6 h. Similarly, after its single topical administration, compound 6 3% (formulated in vitamin E TPGS 16%, mannitol 3.2% boric acid 1.2% and polyquad 0.005%, pH 7.2) produced retinal levels of 2.1 μM at 4 h. The biodistribution of compound 2 in human eyes that were recently removed from deceased donors and kept on ice until used within hours was also evaluated. In this study, compound 2 was dissolved in pure water, its pH was adjusted to 4.8±0.1 and its osmolarity to 290 mOsm. The final concentration of compound 2 was 10% (w/v).
The anterior surface of each was brought into contact with the above solution of compound 2 at 37° C.; the solution level was about 3 mm above the cornea edge. After 1 minute or 10 minutes the eyes were rinsed thoroughly with PBS, incubated for 1 h, and dissected to harvest the retina, choroid, aqueous humor, ciliary body, iris and cornea, which ere assayed by HPLC. As shown in the below table, compound 2 did reach the posterior segment of the eye.

The next series deals with RAW264 murine macrophage. As to the kind of experiment: 24 hr growth inhibition of cell line. As to conditions: Mus musculus, RAW264.7, 24 h. Format: cell-based. The protocol: (§2) The therapeutic efficacy of compounds 2, 5, and 6 was assessed in human and murine cell lines of varied tissue origin, and their 24 hr 50% inhibitory concentration was determined by following standard methodologies. Typical results are shown in the Table 5, indicating a broad anticancer effect.

The test system of a further series is HCT116 colon cancer. As to the kind of experiment: 24 hr growth inhibition of cell line. Conditions: Homo sapiens, HCT-116, 24 h. Type of series: cell-based. The protocol: as §2
The test system of another series is A549 lung cancer. The series can be described thus: 24 hr growth inhibition of cell line. Type of series: cell-based. Conditions: Homo sapiens. The method, then: as §2
The next series deals with AGS gastric cancer. The series can be described thus: 24 hr growth inhibition of cell line. Format: cell-based. As to conditions: Homo sapiens. The protocol:
as §2

The test system of a further series is SKOV-3 ovarian cancer. The series can be described thus: 24 hr growth inhibition of cell line. Type of series: cell-based. As to conditions: Homo sapiens, SK-OV-3, 24 h. The method, then: as §2
Ovarian cancer cells were studied in greater detail using the following ovarian cancer cell lines: SKOV-3, OVCAR3, A2780 (and two cell lines derived from it, A2870cis that is resistant to cisplatin, and A2870ADR that is resistant to doxorubicin (Adriamycin)), and HEY (sensitive to paclitaxel (Taxol), and its derivative HEY-T30 that is Taxol-resistant). […]

With `O=P1(N(CCCl)CCCl)NCCCO1` (stereo not drawn) [cyclophosphamide, reference compound], in the series with HEY-T30 xenografts, the “inhibition of tumor growth compared to control” value came to 23%.

`CCOP(=O)(OCC)OCCCCOC(=O)CC1=C(C)/C(=C/c2ccc([S+](C)[O-])cc2)c2ccc(F)cc21` (stereo not drawn) [phosphosulindac, reference compound]: the “suppression of palmitoylation of Ras” value in series [1] is reported as “not shared”.

On to `CC1=C(CC(=O)N2CCN(CCNS(C)(=O)=O)CC2)c2cc(F)ccc2/C1=C\c1ccc([S+](C)[O-])cc1` (stereo not drawn) [Compound 1], for which, in series [2] (1 hr), the “Drug level in Choroid” value is 4.1, the “Drug level in Conjunctiva” value was 71.6, the “Drug level in Cornea” value amounted to 61.8 and the “Drug level in Iris” value worked out at 6.9. In addition, in series [2] (1 hr), the “Drug level in Lens” value turned out to be 20.2, the “Drug level in Retina” value worked out at 7.5, the “Drug level in Sclera” value was 10.1 and the “Drug level in Vitreous” value is on record as 0.9. Further, in [2] (3 hr), the “Drug level in Choroid” value turned out to be 2.1, the “Drug level in Conjunctiva” value is listed as 52.5, the “Drug level in Cornea” value is on record as 16.2 and the “Drug level in Iris” value is 7.6. Also, in series [2] (3 hr), the “Drug level in Lens” value was determined as 4.6, the “Drug level in Retina” value came to 1.8, the “Drug level in Sclera” value is given as 2.5 and the “Drug level in Vitreous” value was determined as 0.5.

On to `N.N.[Cl][Pt][Cl]` [cis-platinum, reference compound], for which the “growth of platinum-sensitive xenografts” value in the series with A2780 xenografts is given as “suppressed the growth”. Moreover, the “growth of platinum-resistant xenografts” value with A2780cis xenografts is on record as “failed to significantly inhibit tumor growth”.

As for `CCOP(=O)(NCCN1CCN(C(=O)CC2=C(C)/C(=C/c3ccc([S+](C)[O-])cc3)c3ccc(F)cc32)CC1)OCC` (stereo not drawn) [Compound 2], the “avascular area of the retina, percentage of the entire retina surface area (mean±SEM)” value in [3] (vehicle 16.8±1.1) is given as 5.8±0.8%. In series [3] (vehicle 20.7±3.7), the “neovascular area of the retina, percentage of the entire retina surface area (mean±SEM)” value came out at 9.9±2.2%. In addition, in series [4] (1 minute exposure), the “level in aqueous humor” value came out at 1.0 µM, the level in choroid was 425.9 µM, the “level in ciliary body” value stood at 124.6 µM and the level in cornea is 166.3 µM. Besides, in series [4] (1 minute exposure), the level in iris was found to be 43.1 µM and the level in retina is 12.6 µM. Also, in series [4] (10 minutes exposure), the “level in aqueous humor” value was 5.3 µM, the level in choroid stood at 273.5 µM, the “level in ciliary body” value was 206.9 µM and the level in cornea amounted to 512.6 µM. In series [4] (10 minutes exposure), the level in iris stood at 10.3 µM and the level in retina was found to be 46.6 µM. For the same compound, in the series on RAW264 murine macrophage, the 50% inhibitory concentration (IC50) (usually the midpoint of a concentration-inhibition curve) stood at 160 µM. The compound further had an IC50 in the series with HCT116 colon cancer of 460 µM. Besides, in the series with A549 lung cancer, inhibition was half-maximal at 400 µM (IC50). The 50% inhibitory concentration (IC50) in the series on AGS gastric cancer worked out at 306 µM. The midpoint of inhibition in the series with SKOV-3 ovarian cancer, the IC50, lay at 480 µM. Further, in series [2] (2 hr), the “Drug level in Choroid” value stood at 5.3, the “Drug level in Conjunctiva” value is listed as 16.1, the “Drug level in Cornea” value is reported as 106.1 and the “Drug level in Iris” value is recorded as 9.9. Further, in [2] (2 hr), the “Drug level in Lens” value was found to be 0.3, the “Drug level in Retina” value turned out to be 4.1, the “Drug level in Sclera” value is reported as 50.7 and the “Drug level in Vitreous” value stood at 1.2. In [2] (3 hr), the “Drug level in Choroid” value is recorded as 6.4, the “Drug level in Conjunctiva” value stood at 13.5, the “Drug level in Cornea” value is reported as 46.0 and the “Drug level in Iris” value came to 9.8. Further, in [2] (3 hr), the “Drug level in Lens” value is given as 4.0, the “Drug level in Retina” value came to 1.7 and the “Drug level in Sclera” value is 22.4.

The values are drawn from patent US12599599B2, “Anti-inflammatory, anti-cancer, and anti-angiogenic compounds, pharmaceutical compositions, and methods of making and using thereof” (MEDICON PHARMACEUTICALS, INC., priority 2017, dated 2026).
